Structures can show the parent of a compound that is named as a salt. Where two headings read alike, the source gives them in different places. Marks after values point to notes of the source that are not given here.
Test system: rat aorta ring
Assay: Rat aorta assay for angiogenesis inhibition (rat aorta ring model, micro-vessel growth scored)
Assay type: cell-based
Conditions: for inhibition at 100 µg/mL / inhibition at 20 µg/mL / inhibition at 50 µg/mL / inhibition at 4 µg/mL / inhibition at 10 µg/mL: Rattus norvegicus
Source text: The rat aorta ring model based on that described by Nicosia and Ottinetti (Nicosia, R. F. et al., Lab. Investigation 63: 115, 1990; Nicosia, R. F. et al., Cell. Dev. Bio. 26: 119-128, 1990), was used throughout the assay.
The agarose was made up as a 1.5% solution in distilled water and brought to the boil to form a clear solution which was poured into sterile 9 cm petri dishes, covered and allowed to cool and set.
Maintaining sterile conditions, agarose rings were obtained by punching two concentric circles, with sterile 10 and 17 mm hole punches, respectively, in the agarose gel. Using sterile forceps, the rings are removed and placed, three per well in each of the 6-well plates.
The MEM was prepared according to manufacturer's directions, but before filtering through a 0.22 μm filter, HEPES and L-glutamine were added to give 10 mM and 1 mM concentrations respectively with pH adjusted to 7.4. Eight hundred mL of this medium were filtered through a 0.2 μm filter along with the antibiotics (50 mg/L Gentamycin sulphate and 2.5 mg/L Amphotericin B) and 200 mL of FCS (to give 20%) to yield one liter of medium.
The aorta was removed from a 3-4 month male Copenhagen rat and transferred to a dissecting dish where it was cleaned and carefully stripped of the fibroadipose tissue surrounding it. Rings of 0.5 mm were cut, using a fresh scalpel blade, from the length of the aorta. These were kept under sterile conditions in a biohazard hood where they were washed 12 times with MEM.
Before transferring the aortic rings to the culture plate, the bottom of each agarose well was coated with 150 μL of clotting fibrinogen. Fibrinogen was made up as a […] solution in MEM, while Thrombin made up in distilled water to give a concentration of 50 U/mL. The fibrinogen (1 mL) and the thrombin (20 μL) reacted within 30 sec to form a solid gel.
The aortic rings were transferred to the 6-well plates, with one ring placed in the center of each agarose well. Fresh fibrinogen/thrombin was made up as before and 150 μL was used to seal in each aortic ring. The gels were rested for approximately 2 hours before the medium was added.
[…] The compounds were made up as 6 mg/mL solution in water or DMSO. The test solutions were added to each well with the medium.
Six mL of MEM were carefully added to each of three wells to become the controls. MEM, along with the test compounds were added to the remaining wells and all were covered and transferred to the CO2 Incubator at 37° C., where they were kept for the next 14 days.
However, by the fifth day, there were noticeable changes in the tissue. Micro-vessels were seen and scored. We have based the scoring method on that used by Liekens et al., (Liekins, S. et al., Oncol. Res. 9: 173-181, 1997) in which 0 meant no vessels and 10 meant maximum vessels; the score is then converted into a percentage inhibition of vessel growth.

[1] = 120 h, 100 μg/ml, day 5, read-out: Growth Inhibition Day 5 (%)
[2] = 264 h, 100 μg/ml, day 11, read-out: Growth Inhibition Day 11 (%)
[3] = 100 μg/ml, test slow to establish, read after 15 days (footnote *), read-out: Growth inhibition after 15 days
[4] = 120 h, 20 μg/ml, day 5, read-out: Growth Inhibition Day 5 (%)
[5] = 120 h, 50 μg/ml, day 5, read-out: Growth Inhibition Day 5 (%)
[6] = 264 h, 20 μg/ml, day 11, read-out: Growth Inhibition Day 11 (%)
[7] = 264 h, 50 μg/ml, day 11, read-out: Growth Inhibition Day 11 (%)
[8] = 120 h, 10 μg/ml, day 5, read-out: Growth Inhibition Day 5 (%)

O=C(Nc1cccc(B(O)O)c1)n1c(=O)[nH]c2ccccc21 [Example 2, N-(Phenyl-3-boronic acid)-2,3-dihydro-2-oxo-1H-benzimidazole-1-carboxamide]
Growth Inhibition Day 5 (%) (4 μg/ml, day 5): 50%
Growth Inhibition Day 11 (%) (4 μg/ml, day 11): 0%
Growth Inhibition Day 5 (%) (20 μg/ml, day 5): 100%
Growth Inhibition Day 11 (%) (20 μg/ml, day 11): 100%
Growth Inhibition Day 5 (%) (50 μg/ml, day 5): 100%
Growth Inhibition Day 11 (%) (50 μg/ml, day 11): 100%
Growth inhibition after 15 days (100 μg/ml, test slow to establish, read after 15 days (footnote *)): 100* %

O=C(O)c1cccc(NC(=O)n2c(=O)[nH]c3ccccc32)c1 [Example 3, N-(3-Carboxyphenyl)-2,3-dihydro-2-oxo-1H-benzimidazole-1-carboxamide]
inhibition at 100 µg/mL [1]: 60%
inhibition at 100 µg/mL [2]: 60%

O=C(O)c1ccc(NC(=O)n2c(=O)[nH]c3ccccc32)cc1 [Example 4, N-(4-Carboxyphenyl)-2,3-dihydro-2-oxo-1H-benzimidazole-1-carboxamide]
inhibition at 100 µg/mL [3]: 100%
inhibition at 20 µg/mL [4]: 100%
inhibition at 50 µg/mL [5]: 90%
inhibition at 20 µg/mL [6]: 70%
inhibition at 50 µg/mL [7]: 95%

O=C(O)c1ccccc1NC(=O)n1c(=O)[nH]c2ccccc21 [Example 5, N-(2-Carboxyphenyl)-2,3-dihydro-2-oxo-1H-benzimidazole-1-carboxamide]
inhibition at 100 µg/mL [3]: 90%
inhibition at 20 µg/mL [4]: 0%
inhibition at 50 µg/mL [5]: 10%
inhibition at 20 µg/mL [6]: 0%
inhibition at 50 µg/mL [7]: 0%

O=C(O)Cc1ccc(NC(=O)n2c(=O)[nH]c3ccccc32)cc1 [Example 7, N-(4-Carboxymethylphenyl)-2,3-dihydro-2-oxo-1H-benzimidazole-1-carboxamide]
inhibition at 100 µg/mL [3]: 100%
inhibition at 20 µg/mL [4]: 80%
inhibition at 50 µg/mL [5]: 80%
inhibition at 20 µg/mL [6]: 0%
inhibition at 50 µg/mL [7]: 100%

CCOC(=O)c1cccc(NC(=O)n2c(=O)[nH]c3ccccc32)c1 [Example 9, N-(3-Ethoxycarbonylphenyl)-2,3-dihydro-2-oxo-1H-benzimidazole-1-carboxamide]
inhibition at 100 µg/mL [1]: 70%
inhibition at 100 µg/mL [2]: 10%

O=C(Nc1ccccc1)n1c(=S)[nH]c2ccccc21 [Example 11, 2-Thioxo-2,3-dihydrobenzoimidazole-1-carboxylic acid phenylamide]
inhibition at 4 µg/mL (120 h, 4 μg/ml, day 5): 0%
inhibition at 50 µg/mL [5]: 100%

O=C(C1CCCN1)n1c(=O)[nH]c2ccccc21 (stereo not drawn) [Example 12, 1-(Pyrrolidine-2-carbonyl)-1,3-dihydrobenzoimidazol-2-one trifluoroacetic acid salt]
inhibition at 4 µg/mL (120 h, 4 μg/ml, day 5): 50%
inhibition at 20 µg/mL [4]: 70%

C=CCNC(=O)n1c(=O)[nH]c2ccccc21 [Example 13, 2-Oxo-2,3-dihydrobenzoimidazole-1-carboxylic acid allylamide]
inhibition at 4 µg/mL (120 h, 4 μg/ml, day 5): 0%
inhibition at 20 µg/mL [4]: 20%

O=C(Nc1ccccc1)n1c(=O)[nH]c2cncnc21 [Example 14, 8-Oxo-7,8-dihydropurine-9-carboxylic acid phenylamide]
inhibition at 4 µg/mL (120 h, 4 μg/ml, day 5): 20%
inhibition at 20 µg/mL [4]: 40%
inhibition at 50 µg/mL [5]: 20%

CC(C)(C)c1ccc(NC(=O)n2c(=O)[nH]c3ccccc32)cc1 [Example 16, 2-Oxo-2,3-dihydrobenzoimidazole-1-carboxylic acid (4-t-butylphenyl)amide]
inhibition at 10 µg/mL [8]: 10%

O=C(Nc1ccccc1)n1c(=O)[nH]c2ccccc21 [Example 17, 2-Oxo-2,3-dihydrobenzimidazole-1-carboxylic acid phenylamide]
inhibition at 4 µg/mL (120 h, 4 μg/ml, day 5): 50%
inhibition at 20 µg/mL [4]: 30%
inhibition at 50 µg/mL [5]: 95%

O=C1NS(=O)(=O)c2ccc(NC(=O)n3c(=O)[nH]c4ccccc43)cc21 [Example 20, 2-oxo-2,3-dihydrobenzimidazole-1-carboxylic acid (1,1,3-trioxo-2,3-dihydro-1H-1λ^6-benzo[d]isothiazol-5-yl)amide]
inhibition at 10 µg/mL [8]: 100%
inhibition at 10 µg/mL (264 h, 10 μg/ml, day 11, read-out: Growth Inhibition Day 11 (%)): 70%

O=C(O)c1cc(NC(=O)n2c(=O)[nH]c3ccccc32)cc(C(=O)O)c1 [Example 23, 5-[(2-oxo-2,3-dihydrobenzimidazole-1-carbonyl)-amino]isophthalic acid]
inhibition at 10 µg/mL [8]: 10%

O=C(Nc1ccc(OP(=O)(O)O)cc1)n1c(=O)[nH]c2ccccc21 [Example 26, Phosphoric acid mono-{4[(2-oxo-2,3-dihydrobenzimidazole-1-carbonyl)-amino]-phenyl} ester]
inhibition at 10 µg/mL (120 h, read-out: Growth Inhibition Day 5 (%)): 90%
inhibition at 10 µg/mL (264 h, read-out: Growth Inhibition Day 11 (%)): 40%

O=C(Nc1ccc(B(O)O)cc1)n1c(=O)[nH]c2ccccc21 [Example 28, N-(phenyl-4-boronic acid)-2,3-dihydro-2-oxo-1H-benzimidazole-1-carboxamide]
Growth Inhibition Day 11 (%) (4 μg/ml, day 11): 20%
Growth Inhibition Day 11 (%) (10 μg/ml, day 11): 20%

O=C([O-])c1cccc(NC(=O)n2c(=O)[nH]c3ccccc32)c1.[Na+] [Sodium salt of 3, N-(3-Carboxyphenyl)-2,3-dihydro-2-oxo-1H-benzimidazole-1-carboxamide Sodium Salt]
Growth Inhibition Day 5 (%) (100 μg/ml, day 5): 70%
Growth Inhibition Day 11 (%) (100 μg/ml, day 11): 80%
